From the supplement of paper PMC10307832

Columns and labels:
Experiment in all cases: relative viability (nuclei count vs DMSO), 5 days (fraction); higher = more cells survive
Shikonin + Crizotinib = compound: CC(C)=CC[C@@H](O)C1=CC(=O)c2c(O)ccc(O)c2C1=O [Shikonin] + C[C@@H](Oc1cc(-c2cnn(C3CCNCC3)c2)cnc1N)c1c(Cl)ccc(F)c1Cl [Crizotinib] (partner 1 µM)
Outline: (§1)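 For relative viability, nuclei counts in treated wells were divided by those in vehicle wells. Lung cancer cell lines had been pin-tool dosed in 1536-well plates the day after seeding and cultured for 5 days, then fixed and stained in one step (final 0.05% Triton X-100, 1% formaldehyde, 1 ug/ml Hoechst) and imaged at 4×. Doses were one drug alone or a fixed anchor-drug dose plus five library-drug doses (not always all listed) in √10 steps, and values are duplicate-plate medians.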

Shikonin + Linsitinib = compound: CC(C)=CC[C@@H](O)C1=CC(=O)c2c(O)ccc(O)c2C1=O [Shikonin] + C[C@]1(O)C[C@@H](c2nc(-c3ccc4ccc(-c5ccccc5)nc4c3)c3c(N)nccn32)C1 [Linsitinib] (partner 1 µM)
Outline: as §1

Shikonin + Pictilisib = compound: CC(C)=CC[C@@H](O)C1=CC(=O)c2c(O)ccc(O)c2C1=O [Shikonin] + CS(=O)(=O)N1CCN(Cc2cc3nc(-c4cccc5[nH]ncc45)nc(N4CCOCC4)c3s2)CC1 [Pictilisib] (partner 1 µM)
Outline: as §1

Shikonin + Tozasertib = compound: CC(C)=CC[C@@H](O)C1=CC(=O)c2c(O)ccc(O)c2C1=O [Shikonin] + Cc1cc(Nc2cc(N3CCN(C)CC3)nc(Sc3ccc(NC(=O)C4CC4)cc3)n2)n[nH]1 [Tozasertib] (partner 0.1 µM)
Outline: as §1

Shikonin + OSI-027 = compound: CC(C)=CC[C@@H](O)C1=CC(=O)c2c(O)ccc(O)c2C1=O [Shikonin] + COc1cccc2cc(-c3nc([C@H]4CC[C@H](C(=O)O)CC4)n4ncnc(N)c34)[nH]c12 [OSI-027] (partner 0.5 µM)
Outline: as §1

| Cell Line | relative viability (Shikonin + Crizotinib; first compound 0.01 µM) | relative viability (Shikonin + Crizotinib; first compound 0.1 µM) | relative viability (Shikonin + Crizotinib; first compound 0.3162 µM) | relative viability (Shikonin + Crizotinib; first compound 1 µM) | relative viability (Shikonin + Linsitinib; first compound 0.01 µM) | relative viability (Shikonin + Linsitinib; first compound 0.1 µM) | relative viability (Shikonin + Linsitinib; first compound 0.3162 µM) | relative viability (Shikonin + Linsitinib; first compound 1 µM) | relative viability (Shikonin + Pictilisib; first compound 0.01 µM) | relative viability (Shikonin + Pictilisib; first compound 0.1 µM) | relative viability (Shikonin + Pictilisib; first compound 0.3162 µM) | relative viability (Shikonin + Pictilisib; first compound 1 µM) | relative viability (Shikonin + Tozasertib; first compound 0.01 µM) | relative viability (Shikonin + Tozasertib; first compound 0.1 µM) | relative viability (Shikonin + Tozasertib; first compound 0.3162 µM) | relative viability (Shikonin + Tozasertib; first compound 1 µM) | relative viability (Shikonin + OSI-027; first compound 0.01 µM) | relative viability (Shikonin + OSI-027; first compound 0.1 µM) | relative viability (Shikonin + OSI-027; first compound 0.3162 µM) | relative viability (Shikonin + OSI-027; first compound 1 µM) |
| --- | --- | --- | --- | --- | --- | --- | --- | --- | --- | --- | --- | --- | --- | --- | --- | --- | --- | --- | --- | --- |
| NCI-H1944 | 1.12 | 1.18 | 1.24 | 1.22 | 1.2 | 1.44 | 1.35 | 1.27 | 0.352 | 0.379 | 0.353 | 0.392 | 0.241 | 0.22 | 0.29 | 0.257 | 0.397 | 0.462 | 0.423 | 0.459 |
| NCI-H1975 | 1.07 | 1.18 | 1.09 | 0.959 | 1.11 | 0.985 | 1.01 | 0.793 | 0.287 | 0.283 | 0.268 | 0.294 | 0.865 | 0.83 | 0.764 | 0.701 | 0.728 | 0.763 | 0.7 | 0.68 |
| NCI-H1993 |  | 0.922 | 0.866 | 0.93 |  | 0.732 | 0.681 | 0.672 |  | 0.84 | 0.803 | 0.792 | 0.627 | 0.547 | 0.571 | 0.551 | 0.558 | 0.522 | 0.561 | 0.582 |
| NCI-H2009 | 1.07 | 1.2 | 0.972 | 0.45 | 1.23 | 1.25 | 1.14 | 0.848 | 0.817 | 1.13 | 0.671 | 0.187 | 0.747 | 0.774 | 0.815 | 0.56 | 0.687 | 0.622 | 0.52 | 0.257 |
| NCI-H2023 | 0.767 | 0.583 | 0.667 | 0.604 | 0.655 | 0.831 | 0.687 | 0.629 | 0.225 | 0.31 | 0.223 | 0.257 | 0.477 | 0.453 | 0.383 | 0.412 | 0.394 | 0.367 | 0.443 | 0.408 |
| NCI-H2085 | 0.874 | 0.857 | 0.881 | 0.585 | 0.797 | 0.903 | 0.867 | 0.865 | 0.41 | 0.47 | 0.424 | 0.411 | 0.758 | 0.829 | 0.868 | 0.801 | 0.832 | 0.973 | 0.73 | 0.773 |
| NCI-H2087 | 1.07 | 0.781 | 0.923 | 0.824 | 1.27 | 1.3 | 0.927 | 0.839 | 0.767 | 1.05 | 0.843 | 0.861 | 0.307 | 0.254 | 0.198 | 0.202 | 0.602 | 0.616 | 0.66 | 0.502 |
| NCI-H2126 | 1.08 | 1.21 | 1.1 | 1.04 | 0.71 | 0.814 | 0.752 | 0.699 | 0.508 | 0.5 | 0.496 | 0.553 | 0.91 | 0.967 | 0.869 | 0.846 | 0.709 | 0.638 | 0.735 | 0.67 |
